SMILES	melting point [°C]
CN(C)c1ccc(NC(=O)N(C[C@H]2CC[C@H](CN(C(=O)Nc3ccc(N(C)C)cc3)C3CCCC3)CC2)C2CCCC2)cc1	162 to 165
CN(C)CCCC(=O)OC[C@@H]1CC(c2ccc(-c3ccc(N4C[C@H](Cn5ccnn5)OC4=O)cc3F)cn2)=NO1	148
CCOC(=O)N1C(=NC#N)NC(C)=C(C(=O)OC)C1c1cccc(Cl)c1Cl (configuration not stated)	176 to 178
O=C1c2ccccc2CN1C1CCN(c2ccc(C(O)c3ccccc3)cc2)CC1 (configuration not stated)	211 to 214
COC(C)c1cccc2oc(C(=O)O)c(C)c12 (configuration not stated)	113 to 115
CCCN1CCC(Cc2ccc3c(c2)c(Cc2ccc(C(=O)NS(=O)(=O)c4ccccc4C)cc2OC)cn3CCC)C1=O (configuration not stated)	98 to 115
COC(=O)c1ccc2c(=O)n(CC(C)C)c(CNC(=O)OC(C)(C)C)c(-c3cccs3)c2c1	170 to 171
O=C(O)C1Cc2cc(O)c(O)cc2CN1 (configuration not stated)	288
O=C(O)Cc1c(C(=O)C2CCC2)[nH]c2cc(Cl)ccc12	225 to 228
CN1CCCC(n2nc(-c3c(-c4ccccc4)nn4ccccc34)ccc2=O)C1 (configuration not stated)	126 to 127
Nc1nnc(-c2ccc3occ(-c4cccc(OC(F)(F)F)c4)c3c2)o1	182 to 183
CCN(CC)CC1CCCCN1CCNC(=O)N1c2ccc(C)cc2C(=O)Nc2cccnc21 (configuration not stated)	148 to 150
CN(C)C1CCc2[nH]c3ccc(O)cc3c2C1 (configuration not stated)	202 to 204
CC(C)Nc1ccc(-c2ncc(C(F)(F)F)cc2Cl)cc1[N+](=O)[O-]	107 to 109
Cn1c(-c2nnc3ccc(NC=O)nn23)cnc1[N+](=O)[O-]	224 to 226
CC(C)(C)NS(=O)(=O)c1ccccc1C(O)c1ccccc1 (configuration not stated)	160
Cc1nc2cc(NC(=O)c3ccc(Cl)cc3Cl)ccc2n1C	275 to 277
COC1C=C(C)C2(OC(=O)c3ccc([N+](=O)[O-])cc3)CC(C)(C)C1O2 (configuration not stated)	95 to 95.5
COC(=O)c1ccc(CN(C(=O)OC(C)(C)C)c2ccc(C3CCCCC3)cc2)cc1	99.5 to 101
CN(C)CCNS(=O)(=O)c1cccc(NC(=O)c2cnn3c(C(F)(F)F)cc(-c4ccc(C(F)(F)F)cc4)nc23)c1	224
CCCN(CCC)C(=O)Cc1ccc(O)c([N+](=O)[O-])c1	55 to 57
Cc1ccc(N=CN(C)SN(C2CCCCC2)C2CCCCC2)c(C)c1	97 to 98
Cc1cc(OCC(=O)Nc2cccc(C(=O)O)c2)ccc1C(C)C	188 to 189
CC1(c2cccc(S(N)(=O)=O)c2)OCCO1	155 to 157
Cc1c(C(=O)Nc2ccc(OCC(C)(C)C)c(C#N)c2)cnn1-c1cccc(C(F)(F)F)c1	116 to 118

SMILES	melting point [°C]
COc1cc2c(cc1OC)-c1cc(=O)[nH]c(=O)n1CC2	323 to 325
OC1CCCc2ccc(OCc3ccc4ccccc4n3)cc21 (configuration not stated)	113 to 115
O=Cc1ccc(-c2ccc(C=O)s2)s1	213 to 214
COc1ccc(C=O)cc1CS(=O)(=O)O	54
CCCCCCCCCCCCCCCCCCCCC(COC(C)=O)(COC(C)=O)NC(C)=O	93 to 94
Cc1oc(-c2ccccc2)nc1/C=C/c1ccc(COc2ccccc2CC(=O)O)cc1	189 to 190
O=C1c2ccccc2C(=O)N1OCc1cn(C(c2ccccc2)(c2ccccc2)c2ccccc2)cn1	155 to 157
OCC1OC(n2c(NC3CC3)nc3cc(Cl)c(Cl)cc32)C(O)C1O (configuration not stated)	184 to 186
COc1ccc(Cc2sccc2OC2OC(CO)C(O)C(O)C2O)cc1 (configuration not stated)	154 to 155
O=C(O)C(O)CCCCCc1ccc(Cl)cc1 (configuration not stated)	78 to 81
COC(=O)c1ccc(-c2nc(COc3ccc(C=O)cc3OC)c(C)o2)cc1	185 to 186
O=C(CCCCCCCCCCCCC(=O)Oc1cc(O)cc(O)c1)Oc1cc(O)cc(O)c1	140 to 145
Cc1cc(O)c(SCc2cccc(F)c2)c(=O)o1	124
COc1ccc(-c2cccc3nc(Nc4cc(OC)c(OC)c(OC)c4)oc23)cc1	179 to 182
CN(C(CCn1c(=O)cc(C(F)(F)F)[nH]c1=O)C(=O)NO)S(=O)(=O)c1ccc(Oc2ccc(Cl)cc2)cc1 (configuration not stated)	173 to 174
Cc1ccc2cccc(OCc3c(Cl)ccc(N)c3C#N)c2n1	248 to 251
CC(=O)OCC(C)(C)C(Cl)CC(Cl)(Cl)Cl (configuration not stated)	56 to 58
C=CCN(CC=C)c1ccc(NCCO)cc1[N+](=O)[O-]	166 to 170
Nc1ccc2c(c1)S(=O)(=O)c1ccccc1-2	261 to 264
CCCCCC(C)C(C)c1cc(OC)c2c(c1)OC(C)(C)C1=C2CN(C(N)=NO)CC1 (configuration not stated)	176 to 178
COc1cc2c(cc1OCc1ccccc1)CCN(Cc1ccccn1)C2	73 to 74
Nc1nc(-c2ccncc2)nc2c1c([N+](=O)[O-])nn2C1CCCC1	239 to 241
CN(CC1OCCO1)c1nccc(Oc2ccc(NC(=O)c3cc(F)cc(N4CCOCC4)c3)c3ccccc23)n1	111 to 112
CN(Cc1cc2c3c(c1)c(=O)c(C(=O)NCc1ccc(Cl)cc1)cn3CC(=O)N2C)C[C@H](O)c1cccnc1	125 to 127
CC(C)(Cn1c(CO)nc2c(N)nc3ccccc3c21)CS(C)(=O)=O	230 to 232

SMILES	melting point [°C]
CS(=O)(=O)c1nnc(C(F)F)s1	59
O=C1NCCc2c1c1ccccc1n2CC1CCCC1	179 to 181
COc1cc2c(cc1OCc1ccccc1)CCC(=O)N2Cc1cc(OC)c(OC)c(OC)c1	129 to 130
COC(=O)c1cc(F)c(C)c(N)c1Cl	51 to 52
COc1ccc(NS(=O)(=O)c2cccc3ccccc23)cc1OCCc1ccc2ccccc2c1	127 to 131
CC(=O)c1csc2ccc(F)cc12	90 to 92
O=C(O)CCCc1ccc(-c2ccccc2Cl)cc1	60 to 61
Cn1cc(C(=O)NCc2ccc(Cl)cc2)c(=O)c2cc(/C=C\CO)cc(F)c21	182 to 184
O=C(NO)c1cnc(N2CCN(S(=O)(=O)c3ccc(C(=O)Nc4ccc(Cl)c(-c5ccccn5)c4)cc3Cl)CC2)nc1	159
O=C1c2ccccc2-c2c1c1ccccc1c(=O)n2CCCCCO	144 to 146
Cc1cc(Oc2ccccc2)c(S(C)(=O)=O)cc1C(=O)O	195
Cc1ccc(C2=Cc3cc(C)c(C)cc3C2)cc1	227 to 228
CCCCCCCCCCCCCCCCCC(O)c1ccc(C2=NC(C)(C)CO2)c(Cl)c1 (configuration not stated)	74 to 78
COc1c(-c2cc3c(s2)CCCC3N=[N+]=[N-])ccc2c(=O)c(C(=O)O)cn(C3CC3)c12 (configuration not stated)	134 to 136
CCCCC12CCC3c4ccc(OC)cc4CCC3C1CCC2O (configuration not stated)	123 to 125
CC(=NOCCCOc1ccc(CC(=O)O)cc1)c1ccc(C(C)(C)C)cc1	98.7 to 99.7
CCOCc1nc2c(N)nc3cccnc3c2n1CCCC(=O)N1CCOCC1	156 to 157
CCOc1cc(C(C)C)c2c(c1)S(=O)(=O)N(CSc1ccccc1)C2=O	112
O=C(O)C1CCc2c(c3ccccc3n2C(=O)c2cccc(F)c2)C1 (configuration not stated)	170 to 171
O=C(Cc1ccc(Cl)c(Cl)c1)N1C(=O)OC[C@@H]1Cc1ccccc1	70.5 to 71.5
CN1Cc2cccnc2C(N2CCN(C(=O)Cc3ccncc3)CC2)c2ccc(Cl)cc21 (configuration not stated)	83 to 87
COc1cc2c(cc1OC)C(=O)CCCS2	128 to 129
Cc1cc(C)nc(NC(=O)c2ccn3c2CSC3c2cccnc2)c1 (configuration not stated)	171
COc1cc(OC)c(-c2cccs2)cc1/C=C/C(=O)c1ccc(S(=O)(=O)Nc2cc[nH]n2)cc1	142 to 145
O=S(=O)(NCC1CCN(C[C@H]2COc3ccc(Cl)cc3O2)CC1)c1c(F)cccc1F	122 to 124

SMILES	melting point [°C]
CCCCCCCCCCCCCCCCCCNC(=O)OCC(CNS(=O)(=O)CCCCl)NC(=O)OC (configuration not stated)	99 to 101
Nc1ccccc1CNC(=O)C1Cc2ccccc2N1S(=O)(=O)c1ccc(-c2ccc(F)cc2F)cc1 (configuration not stated)	93 to 96
OC(c1ccc(F)cc1)(c1ccc(F)cc1)C1SCSCS1	124 to 125
CCOC(=O)C1CCc2sc3ccc(C#N)cc3c2C1 (configuration not stated)	121 to 122
OCCCCc1cn(C(c2ccccc2)(c2ccccc2)c2ccccc2)cn1	144 to 146
CCOC(=O)C(C(=O)OCC)N1CS(=O)c2c(C)cc([N+](=O)[O-])cc21 (configuration not stated)	97
CC1(C(=O)Nc2cnc(Cl)c(Cl)c2)CC1	115 to 117
CNC(=O)[C@@H]1C[C@H](OS(=O)(=O)c2ccc(C)cc2)CN1S(=O)(=O)c1ccc(C)cc1	147 to 149
CC1(C)OCC(=CCn2cnc3c(Cl)nc(N)nc32)CO1	157 to 159
Cn1cncc1C(O)(c1ccc(Cl)cc1)c1cc2nnn3c(=O)cc(-c4cccc(Cl)c4)c(c1)c23 (configuration not stated)	226
CC(C)c1coc(=O)n1-c1cc(F)c(C#N)cc1F	83
O=C(NCCCCCCC(=O)c1ncco1)c1cc2ccccc2[nH]1	153 to 156
Cn1c(SSc2c(C(=O)Nc3ccccc3)c3cc(O)ccc3n2C)c(C(=O)Nc2ccccc2)c2cc(O)ccc21	185 to 187
CS(=O)(=O)ON1C(=O)CCC1=O	148 to 150
COc1ccc2c(c1)CCN(C=O)C2c1cc(Cl)nc(Cl)c1 (single isomer, unassigned; (-))	156 to 158
CC(=O)c1ccc2c(c1O)CC(O)CO2 (configuration not stated)	130 to 132
NS(=O)(=O)c1ccc(-c2cnn(Cc3ccc(F)cc3)c(=O)c2-c2ccc(F)cc2)cc1	237 to 239
CCCCCCCOc1ccc(C(N)=O)cc1	149 to 152
COc1ccc2c(c1)c(Cc1cc(=O)n(-c3cc(Cl)cc(Cl)c3)[nH]1)c(C)n2C(=O)c1ccc(Cl)cc1	104 to 105
CC(C)(C)C(=O)Nc1ccc2cc3c(cc2c1)CCCC3	202 to 204
Cn1cc(-c2ccccc2)c(=O)c(-c2ccc(Cl)c(Cl)c2)c1	166
C=CC(C)(O)C#Cc1ncn2c1CN(C)C(=O)c1c(Cl)cccc1-2 (configuration not stated)	185 to 187

Reference: a melting point compilation (Tetko et al.; mined from patent text by program, amines drawn as free bases though some values may be those of a salt)
